From US10292382B2, “No-spin cryopreservation technique and resulting products” (Biopredic International, priority 2014, dated 2019)

Tests used:
cells = conditions: above 4° C.; cited from earlier work

Procedure for Fresh human hepatocytes: In this Example, testing was carried out to determine the effect of different concentrations of DMSO (0 to 2%) on the cell plateability/attachment using the inventive, direct NS plating method.
Fresh human hepatocytes having 78% viability, corresponding generally to customary thawed cell viability, were plated with DMSO in concentrations ranging from 0 to 2%. The cells were plated without Percoll density gradient centrifugation for both classical and NS methods. The cell seeding density was 0.37 million cells/well (MW24 plate) for both classical & NS methods. The cells were evaluated for cell morphology, plateability, and metabolic activity.
The DMSO, as a cryoprotectant included in freezing medium, has been tested at final concentrations up to 2% in the cell plating medium.

## C[S+](C)[O-] [DMSO, dimethyl sulfoxide]
cells
  DMSO concentration demonstrated to be toxic: up to 2%
Fresh human hepatocytes
  maximum tolerated DMSO percentage in hepatocyte-NS plating medium for cell attachment: less than 1 % (v/v)
